Results taken from US20080188680A1, “Process Improvement Using Solubility Characteristics” (priority 2005, published 2008).

Assays:
[1] = Gravimetric solubility of diester in methanol (saturated solution); assay type: physicochemical
Protocol: The solubility of dimethyl-5-nitrophthalate (“diester”) in methanol was determined through the normal boiling of methanol, and presented in the following table:
Using glass pressure test tubes immersed in boiling water, an additional point for the solubility of diester at 100° C. was measured to be about 58 wt % diester.
Generally, the solubility was determined gravimetrically. A dilute slurry of diester and methanol was heated to a desired temperature. As needed, more diester solids were added to maintain a dilute slurry. The slurry was heated to a known temperature and stirred for approximately 15-30 minutes to assure the diester solids were equilibrated and the solution was saturated. Then, the stirring was stopped and the diester solids were allowed to settle. A sample of the supernatant liquid was obtained, the liquid was evaporated and the weight of the residual diester was measured. The weight of the residual diester solid was used to calculate the solubility of the diester solid in the methanol. This procedure was repeated for several different temperatures. Then, from the highest temperature, the procedure was repeated except the slurry was cooled to each sampling point and methanol was added instead of diester solids as necessary to maintain a dilute slurry. The difference in the solubility data sets between the heating data set and the cooling data set is an indication of how well equilibrium was obtained.

[2] = Activity coefficient of diester in saturated methanol solution, transformed from the solubility data; assay type: physicochemical; parameters: key: γ = ideal mole-fraction solubility / actual mole-fraction solubility
Excerpt: Solubility data can be compared to the ideal solubility. Two component solubility data (solute and solvent) at various temperatures can be easily calculated as a mole fraction of the solute in solution. The ratio of the mole fraction ideal solubility, xsolute ideal (calculated at the same temperature as the solubility data point) to each mole fraction solubility data point, xsolute actual is the activity coefficient, γsolute. These relationships are expressed mathematically, per equation (2)
In order to solve equation (3) for the activity coefficient, three experimental values are necessary: (i) the melting point of the solute, (ii) the heat of fusion of the solute in cal/g·mol and (iii) at least one value for the solubility of the specific solute in a specific solvent. Assuming the heat of fusion of the solute is constant over the range of temperatures, the relationship in equation (3) allows the mathematical transformation of the temperature and solubility data into an activity coefficient for the solute at each temperature. The terms in equation (3) are defined as follows: γsolute is the activity coefficient of the solute, xsolute is the mole fraction of the solute at a given temperature, T, in K; −ΔH^Fsolute is the heat of fusion in cal/g·mol of the solute, R is the ideal gas constant in cal/K·mol, T is the temperature of a given value for xsolute in K; and Tm(solute) is the melting temperature of the solute in K.
To interpret the solubility information, additional physical properties of diester were measured. The melting point was 124° C. (123-125° C.). The heat of fusion was 7422 cal/g·mole.
The solubility of diester, being a non-electrolyte, would obey the following thermodynamic relationship.
This relationship allows the weight % solubility versus temperature data to be mathematically transformed into an activity coefficient versus temperature data. The corresponding activity coefficient for each solubility data point is as follows: […]

COC(=O)c1cc(C(=O)OC)cc([N+](=O)[O-])c1 [Diester, dimethyl-5-nitro-isophthalate]
solubility ([1]; 25° C.): about 1 wt. %
wt % Diester (solubility in methanol) ([1]; methanol, 25.5 C): 1.0% wt %
wt % Diester (solubility in methanol) ([1]; methanol, 31.1 C): 1.2% wt %
wt % Diester (solubility in methanol) ([1]; methanol, 34.1 C): 1.4% wt %
wt % Diester (solubility in methanol) ([1]; methanol, 34.6 C): 1.5% wt %
wt % Diester (solubility in methanol) ([1]; methanol, 39.6 C): 1.9% wt %
wt % Diester (solubility in methanol) ([1]; methanol, 44.0 C): 2.3% wt %
wt % Diester (solubility in methanol) ([1]; methanol, 44.3 C): 2.3% wt %
wt % Diester (solubility in methanol) ([1]; methanol, 52.4 C): 3.5% wt %
wt % Diester (solubility in methanol) ([1]; methanol, 54.1 C): 3.7% wt %
wt % Diester (solubility in methanol) ([1]; methanol, 61.2 C): 5.7% wt %
wt % Diester (solubility in methanol) ([1]; methanol, 65.3 C): 7.0% wt %
wt % Diester (solubility in methanol) ([1]; methanol, 65.4 C): 7.0% wt %
wt % Diester (solubility in methanol) ([1]; methanol, 100 C, glass pressure test tubes in boiling water): 58.0% wt %
wt % Diester (solubility in methanol) ([1]; methanol, 100 C, glass pressure test tubes in boiling water, listed as diester): about 58 wt %
wt % Diester (solubility in methanol) ([1]; methanol, 100 C, glass pressure test tubes in boiling water, listed as dimethyl-5-nitro-isophthalate): about 58 wt %
maximum solubility obtained below the normal boiling point of methanol ([1]; methanol, below normal boiling point): 7 wt. %
concentration of diester solutions obtained ([1]; methanol, temperature above 100° C.): greater than 70 wt. %
Activ Coef ([2]; 25.5 C): 36.3
Activ Coef ([2]; 31.1 C): 33.7
Activ Coef ([2]; 34.1 C): 32.4
Activ Coef ([2]; 34.6 C): 32.1
Activ Coef ([2]; 39.6 C): 30.1
Activ Coef ([2]; 44.0 C): 28.4
Activ Coef ([2]; 44.3 C): 28.3
Activ Coef ([2]; 52.4 C): 25.3
Activ Coef ([2]; 54.1 C): 24.7
Activ Coef ([2]; 61.2 C): 21.9
Activ Coef ([2]; 65.3 C): 20.4
Activ Coef ([2]; 65.4 C): 20.5
Activ Coef ([2]; 100.0 C): 3.5
